Test results taken from patent publication US20110280848A1, “COMPOSITION COMPRISING CHICORIC ACID AND/OR DERIVATIVES THEREOF” (NESTEC S.A., priority 2009, published 2011).

Tested on: Nrf2-ARE pathway (AREc32 cells)
Test: Antioxidant Responsive Element (ARE) luciferase assay
Assay type: cell-based, human
Settings: for F/C (Nrf2-luciferase reporter activity): 24 h
Description: The pGL-8×ARE which contains eight copies of the ARE present in rat glutathione-S-transferase A2 (GSTA2) along with the pcDNA3.1 plasmid containing the neomycin selectable marker was stably transfected into human MCF7 cells (Wang et al., Cancer Res. 66, 10983-10994, 2006). ARE (antioxidant-responsive element) is the binding site of the transcription factor Nrf2 which regulates the genes involved in detoxification and endogenous defense against oxidative stress. The plasmid pGL-8×ARE contains a luciferase gene downstream of the eight Nrf2 binding sites that allows monitoring Nrf2 activity. For treatment with chicoric acid and related compounds, the AREc 32 cells were seeded 96-well microtiter plates in DMEM growth medium. After treatment of 24 h with the different preparations, firefly luciferase activity was determined.

SMILES: O=C(/C=C/c1ccc(O)c(O)c1)O[C@@H](C(=O)O)[C@@H](OC(=O)/C=C/c1ccc(O)c(O)c1)C(=O)O [chicoric acid]
- F/C (Nrf2-luciferase reporter activity) (100 μg/ml): 2580
- F/C (Nrf2-luciferase reporter activity) (200 μg/ml): 4364
- F/C (Nrf2-luciferase reporter activity) (400 μg/ml): 8810
- F/C (Nrf2-luciferase reporter activity) (600 μg/ml): 558
- F/C (Nrf2-luciferase reporter activity) (800 μg/ml): 251
- F/C (Nrf2-luciferase reporter activity) (1000 μg/ml): 346
- Response in Nrf2-luciferase reporter activity (saturation inactivation response at higher doses): positive dose-dependent response
